In experiment [1] the target is T1, Alpha-1A adrenergic receptor (Bos taurus, UniProt P18130).
T1 sequence (P18130 whole entry): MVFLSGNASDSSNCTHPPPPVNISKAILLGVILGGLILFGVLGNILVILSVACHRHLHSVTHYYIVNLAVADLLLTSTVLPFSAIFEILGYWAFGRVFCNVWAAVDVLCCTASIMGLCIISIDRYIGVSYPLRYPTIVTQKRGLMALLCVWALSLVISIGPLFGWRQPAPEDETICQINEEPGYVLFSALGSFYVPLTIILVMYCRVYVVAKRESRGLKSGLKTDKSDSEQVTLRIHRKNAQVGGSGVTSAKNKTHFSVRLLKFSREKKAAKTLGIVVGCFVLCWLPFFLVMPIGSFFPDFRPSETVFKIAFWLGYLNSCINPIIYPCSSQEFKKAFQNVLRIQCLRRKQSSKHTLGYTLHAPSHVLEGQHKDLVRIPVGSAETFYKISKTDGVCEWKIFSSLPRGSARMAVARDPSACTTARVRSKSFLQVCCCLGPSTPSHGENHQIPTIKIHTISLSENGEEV
The experiment can be described thus: Binding activity against alpha-1 adrenergic receptor from calf cerebral cortex, using [3H]-prazosin as the radioligand. Type of experiment: tissue-based.

The target in experiment [2] is T2, Adrenergic receptor alpha-2 (Rattus norvegicus, UniProt P22086+P19328+P22909).
T2 sequence (P22086 whole entry): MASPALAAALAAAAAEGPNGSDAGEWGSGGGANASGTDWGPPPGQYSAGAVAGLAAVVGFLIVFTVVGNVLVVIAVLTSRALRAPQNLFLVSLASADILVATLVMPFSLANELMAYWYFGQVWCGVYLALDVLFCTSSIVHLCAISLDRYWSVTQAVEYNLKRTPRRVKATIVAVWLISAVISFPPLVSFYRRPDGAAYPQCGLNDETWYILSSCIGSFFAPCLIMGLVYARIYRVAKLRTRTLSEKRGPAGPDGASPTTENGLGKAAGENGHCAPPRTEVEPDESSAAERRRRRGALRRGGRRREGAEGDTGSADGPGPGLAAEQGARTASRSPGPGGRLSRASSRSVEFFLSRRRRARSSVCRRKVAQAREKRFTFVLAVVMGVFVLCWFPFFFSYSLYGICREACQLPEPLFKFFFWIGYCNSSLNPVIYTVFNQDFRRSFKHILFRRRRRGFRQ
T2 sequence (P19328 whole entry): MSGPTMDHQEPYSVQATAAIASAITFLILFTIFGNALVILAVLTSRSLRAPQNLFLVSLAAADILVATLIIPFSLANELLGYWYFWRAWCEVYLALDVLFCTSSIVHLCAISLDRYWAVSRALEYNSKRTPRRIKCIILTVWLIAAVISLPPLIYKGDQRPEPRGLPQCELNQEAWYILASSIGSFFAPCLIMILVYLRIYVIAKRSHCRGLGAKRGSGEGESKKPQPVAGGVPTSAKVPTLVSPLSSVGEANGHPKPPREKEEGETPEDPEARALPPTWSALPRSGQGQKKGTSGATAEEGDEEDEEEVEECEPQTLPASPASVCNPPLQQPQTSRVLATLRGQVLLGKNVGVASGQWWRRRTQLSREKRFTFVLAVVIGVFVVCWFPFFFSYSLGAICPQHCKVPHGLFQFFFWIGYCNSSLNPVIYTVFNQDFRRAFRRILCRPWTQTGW
T2 sequence (P22909 whole entry): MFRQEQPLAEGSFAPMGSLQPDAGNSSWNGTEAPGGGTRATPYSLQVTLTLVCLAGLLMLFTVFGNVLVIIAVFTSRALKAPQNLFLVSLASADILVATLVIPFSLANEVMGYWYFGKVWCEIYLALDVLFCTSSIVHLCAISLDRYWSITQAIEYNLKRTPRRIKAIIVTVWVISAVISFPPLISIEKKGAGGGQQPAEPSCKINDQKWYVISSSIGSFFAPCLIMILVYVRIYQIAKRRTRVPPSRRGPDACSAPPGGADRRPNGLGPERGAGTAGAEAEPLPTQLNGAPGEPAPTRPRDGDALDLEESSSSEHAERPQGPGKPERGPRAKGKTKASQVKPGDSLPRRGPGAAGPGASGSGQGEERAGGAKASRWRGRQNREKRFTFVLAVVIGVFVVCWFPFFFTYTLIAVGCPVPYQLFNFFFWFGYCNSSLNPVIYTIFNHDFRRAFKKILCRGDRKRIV
The experiment can be described thus: Presynaptic antagonistic activity against alpha-2 adrenergic receptor from rat, isolated, field-stimulated vas deferens, using clonidine as the agonist. Type of experiment: functional.

Usually Ki stands for a measure of affinity in units of concentration, obtained from inhibition or displacement. A low value points to higher affinity. A word on the pA2: it is the negative logarithm of the molar antagonist concentration that doubles the agonist concentration needed for the same response. As for `CN1CCN(c2ncccc2F)CC1`, the inhibitory constant (Ki) in experiment [1] is 490 nM. In experiment [2], this compound showed a pA2 of 7.4.
In the same order, the values of `Clc1ccccc1N1CCNCC1` are 160 nM and 6.
In the same order, the values of `Clc1cccnc1N1CCN(Cc2ccccc2)CC1` are 700 nM and 6.5.
The corresponding values for `CN1CCN(c2ncccc2Cl)CC1` are 215 nM and 7.4.
In experiment [1], `Fc1cccnc1N1CCNCC1` displayed an inhibition constant (Ki) of 2500 nM. Moreover, the pA2 in experiment [2] stood at 6.9.

For the origin of these results see ChEMBL document CHEMBL1122408, “Pyridinylpiperazines, a new class of selective alpha 2-adrenoceptor antagonists” (J Med Chem, 1983).
